Results published in the Kinase Knowledgebase extract (Sharma et al. 2016).

Target: PIK3CB;PIK3CG;PIK3CD;PIK3CA (human) (UniProt P48736)
Assay: Enzyme Assay

| Structure (SMILES) | IC50 [µM] |
| --- | --- |
| O=C(c1nn(-c2cccc(CN3CCC(F)CC3)c2)c2c1CS(=O)(=O)c1ccccc1-2)N1CCOCC1 | 0.437 |
| CC1CC(C)CC(n2nc(C(=O)N3CCOCC3)c3c2-c2ccccc2S(=O)(=O)C3)C1 (stereo unspecified) | 7.96 |
| O=C(c1nn([C@H]2CCCN(C3CCOCC3)CC2)c2c1CS(=O)(=O)c1ccccc1-2)N1CCOCC1 | 0.34 |
| O=C(c1nn(-c2cccc(Cn3cccn3)c2)c2c1CS(=O)(=O)c1ccccc1-2)N1CCOCC1 | 0.488 |
| CC(C)CCOC1CCN(Cc2ccc(-n3nc(C(=O)N4CCOCC4)c4c3-c3ccccc3S(=O)(=O)C4)cc2)C1 (stereo unspecified) | 0.167 |
| NCCCC1c2c(C(=O)N3CCOCC3)nn(-c3ccccc3)c2-c2ccccc2S1(=O)=O (stereo unspecified) | 4.52 |
| O=C(c1nn(C2CCCCC2)c2c1CS(=O)(=O)c1sccc1-2)N1CCOCC1 | 0.302 |
| Cn1nc(C(=O)N2CCOCC2)c2c1-c1ccccc1S(=O)(=O)C2 | 1.75 |
| NCc1ccc(-n2nc(C(=O)N3CCOCC3)c3c2-c2ccccc2S(=O)(=O)C3)cc1 | 0.349 |
| O=C(c1nn(-c2cccc(Br)c2)c2c1CS(=O)(=O)c1ccccc1-2)N1CCOCC1 | 0.616 |
| O=C(c1nn(C2CCCN(CCN3CCCC(F)(F)C3)C2)c2c1CS(=O)(=O)c1ccccc1-2)N1CCOCC1 (stereo unspecified) | 0.083 |
| O=C(c1nn(-c2cccc(Cn3ccnc3)c2)c2c1CS(=O)(=O)c1ccccc1-2)N1CCOCC1 | 0.673 |
| CC1COCCN1CCN1CCC[C@H](n2nc(C(=O)N3CCOCC3)c3c2-c2ccccc2S(=O)(=O)C3)C1 (stereo partly specified) | 0.101 |
| O=C(c1nn(C2CCOCC2)c2c1CS(=O)(=O)c1c(Cl)cccc1-2)N1CCOCC1 | 0.673 |
| CS(=O)(=O)Nc1ccc2c(c1)-c1c(c(C(=O)N3CCOCC3)nn1-c1ccccc1)CS2(=O)=O | 1.31 |
| Cc1nc(-c2cccc(-n3nc(C(=O)N4CCOCC4)c4c3-c3ccccc3S(=O)(=O)C4)c2)n[nH]1 | 4.86 |
| O=C(c1nn(-c2cccc(-c3nccs3)c2)c2c1CS(=O)(=O)c1ccccc1-2)N1CCOCC1 | 4.22 |
| O=C(c1nn([C@H]2CCCN(CCN3CCOCC3)C2)c2c1CS(=O)(=O)c1ccccc1-2)N1CCOCC1 | 0.016 |
| O=C(c1nn(-c2ccc(CNC3CCOC3)cc2)c2c1CS(=O)(=O)c1ccccc1-2)N1CCOCC1 (stereo unspecified) | 0.156 |
| O=C(c1nn(C2CN(CCC3CCOCC3)C2)c2c1CS(=O)(=O)c1ccccc1-2)N1CCOCC1 | 0.095 |
| O=C(CCN1CCC[C@H](n2nc(C(=O)N3CCOCC3)c3c2-c2ccccc2S(=O)(=O)C3)C1)N1CCC(F)(F)C1 | 0.041 |
| O=C(c1nn([C@@H]2CCN(CCN3CCC(F)CC3)C2)c2c1CS(=O)(=O)c1ccccc1-2)N1CCOCC1 | 3.69 |

| Structure (SMILES) | IC50 [µM] |
| --- | --- |
| Cc1ccc(F)cc1-n1nc(C(=O)N2CCOCC2)c2c1-c1ccccc1S(=O)(=O)C2 | 4.2 |
| Cn1nc(C(=O)N2CCOCC2)c2c1-c1cc([N+](=O)[O-])ccc1S(=O)(=O)C2 | 2.77 |
| O=C(c1nn(-c2ccccc2)c2c1CS(=O)(=O)c1ccc([N+](=O)[O-])cc1-2)N1CCOCC1 | 1.83 |
| CC1CCC(n2nc(C(=O)N3CCOCC3)c3c2-c2ccccc2S(=O)(=O)C3)CC1 (stereo unspecified) | 0.426 |
| O=C(c1nn([C@H]2CCCN(C3CCCOC3)C2)c2c1CS(=O)(=O)c1c(F)cccc1-2)N1CCOCC1 (stereo partly specified) | 0.025 |
| CN1CCC(N2CCC[C@H](n3nc(C(=O)N4CCOCC4)c4c3-c3ccccc3S(=O)(=O)C4)C2)CC1 | 0.028 |
| O=C(c1nn(-c2cccc(Nc3ccccc3)c2)c2c1CS(=O)(=O)c1ccccc1-2)N1CCOCC1 | 2.69 |
| CN1CCN(C(=O)c2ccc3c(c2)-c2c(c(C(=O)N4CCOCC4)nn2-c2ccccc2)CS3(=O)=O)CC1 | 4.28 |
| O=C(c1nn([C@H]2CCCN(CCN3CCC(F)CC3)C2)c2c1CS(=O)(=O)c1ccccc1-2)N1CCOCC1 | 0.025 |
| COCCCN1CCCC(n2nc(C(=O)N3CCOCC3)c3c2-c2ccccc2S(=O)(=O)C3)C1 (stereo unspecified) | 0.14 |
| O=C(c1nn(-c2cccc(CN3CCCC(F)(F)C3)c2)c2c1CS(=O)(=O)c1ccccc1-2)N1CCOCC1 | 1.54 |
| CS(=O)(=O)C1CCN(Cc2cccc(-n3nc(C(=O)N4CCOCC4)c4c3-c3ccccc3S(=O)(=O)C4)c2)C1 (stereo unspecified) | 0.464 |
| COCCN1CCC(Cn2nc(C(=O)N3CCOCC3)c3c2-c2ccccc2S(=O)(=O)C3)CC1 | 0.681 |
| O=C(c1nn(Cc2nc3ccccc3s2)c2c1CS(=O)(=O)c1ccccc1-2)N1CCOCC1 | 1.49 |
| CN(C)c1ccc2c(c1)S(=O)(=O)Cc1c(C(=O)N3CCOCC3)nn(-c3ccccc3)c1-2 | 5.02 |
| O=C(c1nn(C2CCCN(CCC3CCOCC3)C2)c2c1CS(=O)(=O)c1ccccc1-2)N1CCOCC1 (stereo unspecified) | 0.054 |
| O=C(c1nn(C2CCCC(C(=O)N3CCCCC3)C2)c2c1CS(=O)(=O)c1ccccc1-2)N1CCOCC1 (stereo unspecified) | 0.362 |
| CNc1cccc2c1S(=O)(=O)Cc1c(C(=O)N3CCOCC3)nn(-c3ccccc3)c1-2 | 3.51 |
| O=C(c1nn(C2CCCCC2)c2c1CS(=O)(=O)c1ncccc1-2)N1CCOCC1 | 0.437 |
| COC1CCN(CCN2CCC[C@H](n3nc(C(=O)N4CCOCC4)c4c3-c3ccccc3S(=O)(=O)C4)C2)CC1 | 0.021 |
| O=C(c1nn(C2CCCN(CCN3CC[C@@H](F)C3)C2)c2c1CS(=O)(=O)c1ccccc1-2)N1CCOCC1 (stereo partly specified) | 0.034 |
| Cc1nc2ccc(-n3nc(C(=O)N4CCOCC4)c4c3-c3ccccc3S(=O)(=O)C4)cc2s1 | 0.662 |

| Structure (SMILES) | IC50 [µM] |
| --- | --- |
| Nc1ccc2c(c1)-c1c(c(C(=O)N3CCOCC3)nn1-c1ccccc1)CS2(=O)=O | 0.368 |
| O=C(c1nn(-c2ccccc2)c2c1CS(=O)(=O)c1ncccc1-2)N1CCOCC1 | 0.53 |
| Cc1ccc2c(c1)S(=O)(=O)Cc1c(C(=O)N3CCOCC3)nn(-c3ccccc3)c1-2 | 1.84 |
| O=C(c1nn([C@H]2CCN(C3CCOCC3)C2)c2c1CS(=O)(=O)c1c(F)cccc1-2)N1CCOCC1 | 0.052 |
| O=C(c1nn([C@@H]2CCN(CCC3CCOCC3)C2)c2c1CS(=O)(=O)c1c(F)cccc1-2)N1CCOCC1 | 1.69 |
| CC1CN(CCN2CCC[C@H](n3nc(C(=O)N4CCOCC4)c4c3-c3ccccc3S(=O)(=O)C4)C2)CCO1 (stereo partly specified) | 0.029 |
| O=C(c1nn(C2CCN(CCC3CCOCC3)C2)c2c1CS(=O)(=O)c1c(F)cccc1-2)N1CCOCC1 (stereo unspecified) | 0.021 |
| O=C(c1nn(C2CCN(CCN3CCC(F)CC3)C2)c2c1CS(=O)(=O)c1ccccc1-2)N1CCOCC1 (stereo unspecified) | 0.149 |
| O=C(c1nn(-c2cccc(CN3CCCCC3)c2)c2c1CS(=O)(=O)c1ccccc1-2)N1CCOCC1 | 0.394 |
| O=C(c1cccc(-n2nc(C(=O)N3CCOCC3)c3c2-c2ccccc2S(=O)(=O)C3)c1)N1CCOCC1 | 0.073 |
| Cc1nnc(-c2cccc(-n3nc(C(=O)N4CCOCC4)c4c3-c3ccccc3S(=O)(=O)C4)c2)s1 | 0.661 |
| O=C(c1nn([C@H]2CCCN(C3CCCOC3)C2)c2c1CS(=O)(=O)c1ncccc1-2)N1CCOCC1 (stereo partly specified) | 0.036 |
| O=C(c1nn([C@@H]2CCN(C3CCOCC3)C2)c2c1CS(=O)(=O)c1ccccc1-2)N1CCOCC1 | 0.045 |
| O=C(c1nn([C@H]2CCCN(C3CCCNC3)C2)c2c1CS(=O)(=O)c1ccccc1-2)N1CCOCC1 (stereo partly specified) | 0.025 |
| COC1CCN(C(=O)c2cccc(-n3nc(C(=O)N4CCOCC4)c4c3-c3ccccc3S(=O)(=O)C4)c2)CC1 | 0.302 |
| O=C(c1nn(C2CCCN(CCF)C2)c2c1CS(=O)(=O)c1ccccc1-2)N1CCOCC1 (stereo unspecified) | 0.32 |
| O=C(c1nn(-c2ccc(CN3CC(F)(F)C3)cc2)c2c1CS(=O)(=O)c1ccccc1-2)N1CCOCC1 | 0.395 |
| O=C(c1nn(-c2cccc(-c3ccccc3)c2)c2c1CS(=O)(=O)c1ccccc1-2)N1CCOCC1 | 0.764 |
| COc1ccc2c(c1)S(=O)(=O)Cc1c(C(=O)N3CCOCC3)nn([C@H]3CCCN(C4CCCOC4)C3)c1-2 (stereo partly specified) | 0.024 |
| O=C(c1nn(C2CCOCC2)c2c1CS(=O)(=O)c1c(F)cccc1-2)N1CCOCC1 | 1.03 |
| O=C(c1nn([C@H]2CCCN(C(=O)C3CCOCC3)C2)c2c1CS(=O)(=O)c1ccccc1-2)N1CCOCC1 | 1.5 |
| COc1ccc2c(c1)S(=O)(=O)Cc1c(C(=O)N3CCOCC3)nn([C@H]3CCCN(CCN4CC(F)(F)C4)C3)c1-2 | 0.015 |

| Structure (SMILES) | IC50 [µM] |
| --- | --- |
| O=C(c1nn([C@@H]2CCCNC2)c2c1CS(=O)(=O)c1ccccc1-2)N1CCOCC1 | 3 |
| COCCN1CCC(n2nc(C(=O)N3CCOCC3)c3c2-c2ccccc2S(=O)(=O)C3)C1 (stereo unspecified) | 1.48 |
| O=C(c1nn(-c2ccccc2)c2c1CS(=O)(=O)c1c(-c3ccccc3)cccc1-2)N1CCOCC1 | 17.9 |
| COCCN1CCC[C@H](n2nc(C(=O)N3CCOCC3)c3c2-c2cccc(C)c2S(=O)(=O)C3)C1 | 0.096 |
| O=C(c1nn(-c2ccc(F)cc2)c2c1CS(=O)(=O)c1ccccc1-2)N1CCOCC1 | 0.373 |
| O=C(c1nn(-c2ccccc2)c2c1CS(=O)(=O)c1cc(Br)ccc1-2)N1CCOCC1 | 0.904 |
| Cn1cc(-c2cccc(-n3nc(C(=O)N4CCOCC4)c4c3-c3ccccc3S(=O)(=O)C4)c2)cn1 | 0.184 |
| O=C(c1nn([C@H]2CCCN(c3cccnc3)C2)c2c1CS(=O)(=O)c1ccccc1-2)N1CCOCC1 | 0.048 |
| CC1(C)CCCC(n2nc(C(=O)N3CCOCC3)c3c2-c2ccccc2S(=O)(=O)C3)C1 (stereo unspecified) | 0.498 |
| O=C(c1cccc(-n2nc(C(=O)N3CCOCC3)c3c2-c2ccccc2S(=O)(=O)C3)c1)N1CCC(O)CC1 | 0.371 |
| O=C(c1nn(C2CCCN(CCc3ccccc3)C2)c2c1CS(=O)(=O)c1ccccc1-2)N1CCOCC1 (stereo unspecified) | 0.711 |
| CC1COCCN1C(=O)c1nn(-c2ccccc2)c2c1CS(=O)(=O)c1ccccc1-2 (stereo unspecified) | 13.9 |
| O=C(c1nn(-c2ccccc2)c2c1CS(=O)(=O)c1ccccc1-2)N1CCOC(CO)C1 (stereo unspecified) | 6.53 |
| O=C(c1nn(-c2ccc(CN3CCOCC3)cc2)c2c1CS(=O)(=O)c1ccccc1-2)N1CCOCC1 | 0.17 |
| COCCCn1nc(C(=O)N2CCOCC2)c2c1-c1ccccc1S(=O)(=O)C2 | 0.907 |
| COCCNc1ccc2c(c1)S(=O)(=O)Cc1c(C(=O)N3CCOCC3)nn(-c3ccccc3)c1-2 | 6.61 |
| COCCN(C)CCN1CCC[C@H](n2nc(C(=O)N3CCOCC3)c3c2-c2ccccc2S(=O)(=O)C3)C1 | 0.045 |
| COc1ccc2c(c1)S(=O)(=O)Cc1c(C(=O)N3CCOCC3)nn([C@@H]3CCCN(CCC4CCOCC4)C3)c1-2 | 10.3 |
| COc1ccc2c(c1)S(=O)(=O)Cc1c(C(=O)N3CCOCC3)nn(C)c1-2 | 0.422 |
| O=C(c1nn(-c2ccc(CN3CCOCC3)nc2)c2c1CS(=O)(=O)c1ccccc1-2)N1CCOCC1 | 0.614 |
